In data set [1] the target is Ryanodine receptor 2 (Homo sapiens, UniProt Q92736). As to the kind of experiment: Activation of ryanodine receptor in human IMR32 cells assessed as induction of calcium mobilization. It is filed as cell-based, IMR-32.
Data set [2] in a line: Solubility in water at 20 degC. The class given is physicochemical.
The subject of a further data set is Plutella xylostella. As to the kind of experiment: Insecticidal activity against Plutella xylostella larvae. It is filed as functional, organism-based.
Data set [3] in a line: Activation of Heliothis virescens recombinant ryanodine receptor.
Data set [4] in a line: Octanol-water partition coefficient, log P at 20 degC. The class given is physicochemical.
The target in data set [5] is Ryanodine receptor 2 (Rattus norvegicus, UniProt B0LPN4). As to the kind of experiment: Activation of ryanodine receptor 2 in rat PC12 cells assessed as induction of calcium mobilization. The class given is cell-based, PC-12.
Chain of Ryanodine receptor 2 (Rattus norvegicus, UniProt B0LPN4) (B0LPN4 whole entry): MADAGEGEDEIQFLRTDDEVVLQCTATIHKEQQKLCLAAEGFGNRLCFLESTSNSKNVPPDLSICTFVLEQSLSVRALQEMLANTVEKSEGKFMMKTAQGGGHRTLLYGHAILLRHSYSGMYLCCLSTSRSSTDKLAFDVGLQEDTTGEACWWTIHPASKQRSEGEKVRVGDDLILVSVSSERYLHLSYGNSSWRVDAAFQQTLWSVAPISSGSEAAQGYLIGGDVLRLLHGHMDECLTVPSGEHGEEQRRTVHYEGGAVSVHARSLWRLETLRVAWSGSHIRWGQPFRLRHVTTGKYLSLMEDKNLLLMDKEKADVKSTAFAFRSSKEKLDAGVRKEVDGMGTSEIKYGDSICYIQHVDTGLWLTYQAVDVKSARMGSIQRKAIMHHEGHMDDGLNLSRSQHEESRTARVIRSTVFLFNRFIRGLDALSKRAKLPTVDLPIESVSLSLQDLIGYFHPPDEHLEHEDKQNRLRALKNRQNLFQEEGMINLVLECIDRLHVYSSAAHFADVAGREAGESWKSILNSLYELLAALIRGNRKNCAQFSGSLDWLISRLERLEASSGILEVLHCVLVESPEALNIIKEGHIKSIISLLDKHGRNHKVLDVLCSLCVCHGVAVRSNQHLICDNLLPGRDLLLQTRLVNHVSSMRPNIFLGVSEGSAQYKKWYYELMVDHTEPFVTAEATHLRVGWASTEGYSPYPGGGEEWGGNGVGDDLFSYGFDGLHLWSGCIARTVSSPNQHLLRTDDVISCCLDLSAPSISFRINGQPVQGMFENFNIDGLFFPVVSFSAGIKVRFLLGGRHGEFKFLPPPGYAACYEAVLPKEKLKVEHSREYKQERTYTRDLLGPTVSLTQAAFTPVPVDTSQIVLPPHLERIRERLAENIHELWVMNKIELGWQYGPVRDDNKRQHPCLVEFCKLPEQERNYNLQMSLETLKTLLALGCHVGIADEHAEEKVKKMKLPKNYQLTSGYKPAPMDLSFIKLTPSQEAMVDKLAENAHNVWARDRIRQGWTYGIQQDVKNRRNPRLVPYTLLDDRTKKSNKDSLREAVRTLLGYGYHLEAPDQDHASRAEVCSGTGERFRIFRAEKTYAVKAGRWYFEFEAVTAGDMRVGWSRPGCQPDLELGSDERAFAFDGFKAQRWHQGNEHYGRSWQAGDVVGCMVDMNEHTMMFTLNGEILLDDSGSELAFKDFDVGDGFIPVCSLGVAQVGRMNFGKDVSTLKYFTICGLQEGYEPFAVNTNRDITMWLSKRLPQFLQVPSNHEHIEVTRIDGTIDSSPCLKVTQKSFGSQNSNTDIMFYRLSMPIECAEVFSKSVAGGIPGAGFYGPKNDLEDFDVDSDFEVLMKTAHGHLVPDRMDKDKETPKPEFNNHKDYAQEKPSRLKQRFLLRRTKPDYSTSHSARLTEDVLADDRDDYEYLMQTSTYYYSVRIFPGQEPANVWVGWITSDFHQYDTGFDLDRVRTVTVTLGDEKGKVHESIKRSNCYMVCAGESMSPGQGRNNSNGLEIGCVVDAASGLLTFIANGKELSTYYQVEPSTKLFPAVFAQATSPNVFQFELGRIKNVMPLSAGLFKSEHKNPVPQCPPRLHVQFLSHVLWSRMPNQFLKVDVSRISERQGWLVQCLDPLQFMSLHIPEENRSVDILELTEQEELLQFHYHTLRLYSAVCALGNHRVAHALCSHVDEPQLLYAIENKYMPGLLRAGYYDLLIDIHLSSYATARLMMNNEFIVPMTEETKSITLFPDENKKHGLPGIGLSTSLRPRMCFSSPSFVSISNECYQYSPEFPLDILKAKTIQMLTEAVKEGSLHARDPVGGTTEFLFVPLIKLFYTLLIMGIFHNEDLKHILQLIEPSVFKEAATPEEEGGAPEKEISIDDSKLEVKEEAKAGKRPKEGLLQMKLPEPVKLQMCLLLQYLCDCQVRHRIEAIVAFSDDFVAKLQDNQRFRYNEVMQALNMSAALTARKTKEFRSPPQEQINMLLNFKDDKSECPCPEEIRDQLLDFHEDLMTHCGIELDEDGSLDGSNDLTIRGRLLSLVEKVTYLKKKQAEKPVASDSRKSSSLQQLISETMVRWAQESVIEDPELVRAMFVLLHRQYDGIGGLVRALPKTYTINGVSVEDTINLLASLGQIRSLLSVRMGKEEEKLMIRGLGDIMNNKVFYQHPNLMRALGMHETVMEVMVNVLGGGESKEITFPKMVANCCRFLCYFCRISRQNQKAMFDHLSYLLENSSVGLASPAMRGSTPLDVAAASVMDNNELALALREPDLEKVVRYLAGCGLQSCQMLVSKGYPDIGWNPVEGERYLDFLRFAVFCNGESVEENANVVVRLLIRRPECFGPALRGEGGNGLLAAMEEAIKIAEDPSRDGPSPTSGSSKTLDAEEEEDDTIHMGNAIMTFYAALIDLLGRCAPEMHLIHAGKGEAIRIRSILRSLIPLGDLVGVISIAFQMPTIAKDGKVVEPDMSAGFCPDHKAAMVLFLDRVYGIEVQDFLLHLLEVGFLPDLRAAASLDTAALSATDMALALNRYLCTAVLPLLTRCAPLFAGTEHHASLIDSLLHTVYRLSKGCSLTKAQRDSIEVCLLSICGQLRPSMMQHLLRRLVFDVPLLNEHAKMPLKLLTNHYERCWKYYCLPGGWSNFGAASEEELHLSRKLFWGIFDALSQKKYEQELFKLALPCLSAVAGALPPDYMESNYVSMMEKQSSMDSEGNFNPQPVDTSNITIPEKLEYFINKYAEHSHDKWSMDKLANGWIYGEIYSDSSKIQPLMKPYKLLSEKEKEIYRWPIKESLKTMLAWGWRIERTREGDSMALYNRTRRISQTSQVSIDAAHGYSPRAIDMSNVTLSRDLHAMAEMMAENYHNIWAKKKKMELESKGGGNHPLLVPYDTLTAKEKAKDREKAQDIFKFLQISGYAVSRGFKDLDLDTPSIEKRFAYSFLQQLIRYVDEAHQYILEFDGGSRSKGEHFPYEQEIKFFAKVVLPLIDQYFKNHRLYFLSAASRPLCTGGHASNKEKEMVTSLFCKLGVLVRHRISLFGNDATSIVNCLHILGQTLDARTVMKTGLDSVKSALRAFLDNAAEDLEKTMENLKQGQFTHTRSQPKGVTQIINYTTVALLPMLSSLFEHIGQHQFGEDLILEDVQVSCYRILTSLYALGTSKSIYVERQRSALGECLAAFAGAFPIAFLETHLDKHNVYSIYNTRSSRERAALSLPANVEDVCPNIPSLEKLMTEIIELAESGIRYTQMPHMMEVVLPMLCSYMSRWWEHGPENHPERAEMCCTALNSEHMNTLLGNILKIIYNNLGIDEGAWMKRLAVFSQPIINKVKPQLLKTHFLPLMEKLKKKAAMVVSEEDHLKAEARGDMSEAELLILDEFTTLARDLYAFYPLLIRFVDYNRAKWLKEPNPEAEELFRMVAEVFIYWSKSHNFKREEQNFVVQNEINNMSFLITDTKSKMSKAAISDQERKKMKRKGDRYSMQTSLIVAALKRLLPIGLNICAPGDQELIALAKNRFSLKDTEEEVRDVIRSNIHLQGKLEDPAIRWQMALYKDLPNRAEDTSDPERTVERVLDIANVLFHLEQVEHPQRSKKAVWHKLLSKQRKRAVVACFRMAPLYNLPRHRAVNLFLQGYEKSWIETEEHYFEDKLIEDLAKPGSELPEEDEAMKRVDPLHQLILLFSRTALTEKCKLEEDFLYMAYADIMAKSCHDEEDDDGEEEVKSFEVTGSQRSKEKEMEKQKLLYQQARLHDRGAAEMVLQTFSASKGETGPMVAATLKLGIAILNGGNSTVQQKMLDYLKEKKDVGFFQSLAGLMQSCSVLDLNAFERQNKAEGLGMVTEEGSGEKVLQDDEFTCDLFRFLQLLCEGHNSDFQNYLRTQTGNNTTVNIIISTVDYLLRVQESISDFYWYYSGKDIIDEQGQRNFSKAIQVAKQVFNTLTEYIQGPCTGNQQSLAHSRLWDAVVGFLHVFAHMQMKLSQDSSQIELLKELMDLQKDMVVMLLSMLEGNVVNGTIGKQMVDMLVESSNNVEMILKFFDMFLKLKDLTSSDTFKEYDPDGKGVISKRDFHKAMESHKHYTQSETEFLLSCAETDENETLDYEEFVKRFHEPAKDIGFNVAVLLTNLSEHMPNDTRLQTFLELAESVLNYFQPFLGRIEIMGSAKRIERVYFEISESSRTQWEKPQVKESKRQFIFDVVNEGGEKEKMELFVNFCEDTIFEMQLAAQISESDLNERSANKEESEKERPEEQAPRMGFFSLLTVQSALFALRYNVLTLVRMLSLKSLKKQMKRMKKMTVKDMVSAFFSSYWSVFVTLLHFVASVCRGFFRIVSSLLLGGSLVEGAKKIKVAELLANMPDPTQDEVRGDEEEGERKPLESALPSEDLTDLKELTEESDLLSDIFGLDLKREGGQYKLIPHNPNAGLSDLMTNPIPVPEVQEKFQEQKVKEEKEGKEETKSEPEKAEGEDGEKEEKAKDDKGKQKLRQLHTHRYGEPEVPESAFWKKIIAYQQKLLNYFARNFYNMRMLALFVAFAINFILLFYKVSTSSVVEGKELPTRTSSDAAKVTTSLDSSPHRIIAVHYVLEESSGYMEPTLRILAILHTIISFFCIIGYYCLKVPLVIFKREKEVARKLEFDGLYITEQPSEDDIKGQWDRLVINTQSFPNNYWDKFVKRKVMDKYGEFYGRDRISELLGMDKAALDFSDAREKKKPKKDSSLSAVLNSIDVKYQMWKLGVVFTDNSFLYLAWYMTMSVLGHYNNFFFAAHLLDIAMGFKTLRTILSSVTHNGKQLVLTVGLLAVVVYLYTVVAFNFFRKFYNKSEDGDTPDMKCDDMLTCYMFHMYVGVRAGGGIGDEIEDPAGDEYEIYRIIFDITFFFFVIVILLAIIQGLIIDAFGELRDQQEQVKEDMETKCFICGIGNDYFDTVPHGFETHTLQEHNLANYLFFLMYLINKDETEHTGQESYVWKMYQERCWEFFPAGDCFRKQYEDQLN
The test system of another data set is Heliothis virescens. As to the kind of experiment: Insecticidal activity against Heliothis virescens larvae. The class given is functional, organism-based.
A further data set concerns C2C12. As to the kind of experiment: Selectivity for Heliothis virescens recombinant ryanodine receptor over ryanodine receptor 1 in mouse C2C12 cells. The class given is cell-based.
Data set [6] can be described thus: Activation of ryanodine receptor in Periplaneta americana neurons.
In another data set the test system is PC-12. As to the kind of experiment: Selectivity for Drosophila melanogaster ryanodine receptor over ryanodine receptor 2 in rat PC12 cells. It is filed as cell-based.
The next data set addresses Ryanodine receptor 1 (Mus musculus, UniProt E9PZQ0). As to the kind of experiment: Activation of ryanodine receptor 1 in mouse C2C12 cells assessed as induction of calcium mobilization. It is filed as cell-based. Background: A change in cytosolic calcium serves as a functional read-out for many receptors and channels.
For a further data set, the system named is Spodoptera frugiperda. As to the kind of experiment: Insecticidal activity against Spodoptera frugiperda larvae. The class given is functional, organism-based.
Data set [7] can be described thus: Activation of ryanodine receptor-mediated calcium release in Heliothis virescens neurons.
Another data set can be described thus: physchem. To be noted: octanol/water.

In brackets after ≈: the same amount, converted by molar mass.

In general, solubility refers to the concentration that dissolves in the medium under given conditions. Low readings indicate a poorly soluble substance, high ones a readily soluble substance. The logP is a log measure of how a compound divides between an organic and an aqueous phase.

Description for physchem: Octanol-water partition coefficient, log P at 24.9 degC

As to `CNC(=O)c1cc(Cl)cc(C)c1NC(=O)c1cc(Br)nn1-c1ncccc1Cl` [CHLORANTRANILIPROLE], the EC50 is greater than 100 µM at Ryanodine receptor 2 [1]; 0.01 ppm in the data set on Plutella xylostella; 40 nM in data set [3]; greater than 100 µM on Ryanodine receptor 2 [5]; 0.05 ppm in the data set on Heliothis virescens; 40 nM in [6]. Besides, the EC50 on Ryanodine receptor 1 worked out at 14 µM; with Spodoptera frugiperda, 0.02 ppm. In data set [2], this compound came in with a solubility of 1 µg/mL (≈ 2.07 µM). Further, the logP in data set [4] is 2.86. The Selectivity ratio in the data set with C2C12 was greater than 2000; with PC-12, 300.
As to `Cc1cc(C(F)(C(F)(F)F)C(F)(F)F)ccc1NC(=O)c1cccc(I)c1C(=O)NC(C)(C)CS(C)(=O)=O` [FLUBENDIAMIDE], the solubility in data set [2] came to 0.03 µg/mL (≈ 0.044 µM). In [7], the EC50 came out at 690 nM. The compound also registered a logP in the data set “physchem” of 4.2.
